“And” between values parts separate entries of the source, which are not always exact repeats. Equal values may be shown once. Read-outs that look alike come from different tables or passages of the source.
Key:
recombinant human Icmt = molecular target: T1, recombinant human Icmt (Homo sapiens, UniProt O60725); experiment: Icmt assay: [3H]methyl incorporation into BFC, Sf9 membranes containing recombinant human Icmt; type: biochemical; conditions: for Km: substrate of recombinant human Icmt, in vitro methylation assay, read-out: Km (apparent) as substrate
T1 construct: a recombinant baculovirus containing the entire open reading frame of the human Icmt cDNA; made in house; host or cells: Sf9 insect cells (baculovirus); membrane fraction used
T1 sequence (O60725 whole entry): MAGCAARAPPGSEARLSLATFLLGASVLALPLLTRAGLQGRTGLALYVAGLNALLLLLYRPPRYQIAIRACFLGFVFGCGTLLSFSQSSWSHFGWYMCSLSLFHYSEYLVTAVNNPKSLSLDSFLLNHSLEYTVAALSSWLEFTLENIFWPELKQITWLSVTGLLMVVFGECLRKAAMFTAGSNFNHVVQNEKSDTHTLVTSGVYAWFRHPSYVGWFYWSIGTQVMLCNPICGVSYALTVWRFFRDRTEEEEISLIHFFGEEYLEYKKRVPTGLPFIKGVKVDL
Description: Streptavidin-sepharose beads were purchased from Amersham, trans, trans-farnesyl bromide, biotin N-hydroxysuccinimide ester and S-(5'-adenosyl)-L-methionine p-toluenesulfonate were purchased from Sigma-Aldrich, L-cysteine was purchased from Novabiochem, [^3H-methyl]-S-adenosyl-L-methionine was purchased from Perkin Elmer Life Sciences, farnesylthioacetic acid (FTA) was purchased from Biomol, S-(5'-adenosyl)-L-homocysteine was purchased from Fluka. The N-acetyl-S-farnesylcysteine methyl ester (AFCME) and N-acetyl-S-farnesylcysteine methyl amide (AFCMA) were synthesized as previously described ([24-26]). Recombinant human Icmt was prepared by infection of Sf9 cells with a recombinant baculovirus containing the entire open reading frame of the human Icmt cDNA as described. The membrane fraction of the infected Sf9 cells, isolated as described for studies with the Rce1 protease, was used as the source of Icmt for all studies described.
The assay developed for Icmt activity involved quantitation of [^3H]methyl incorporation into the small molecule substrate BFC. For the standard assay, reactions were initiated by addition of Sf9 membranes containing Icmt (0.5 μg protein) to an assay mixture containing BFC (4 μM) and [^3H]AdoMet (5 μM, 1.3 Ci/mmol) in100 mM Hepes, pH 7.4 and 5 mM MgCl2 in a total volume of 45 μl. Reactions were carried out for 20 min at 37°C, whereupon they were terminated by addition of 5 μl of 10% Tween 20. Following termination, streptavidin beads (10 μl of packed beads suspended in 500 μl of 20 mM NaH2PO4, pH 7.4, contaning 150 mM NaCl) were added, and the mixtures mixed by gentle agitation overnight at 4°C. The beads were harvested by centrifugation in a tabletop microcentrifuge at 10,000 rpm for 5 min and washed 3 times with 500 μl of 20 mM NaH2PO4, pH 7.4, containing 150 mM NaCl. The beads were then suspended in 100 μl of the same buffer, transferred to scintillation vials, and radioactivity determined. For the kinetic analyses, the concentrations of substrates (AdoMet, BFC) or additional ligands (eg. AdoHcy, AFCME, etc) were varied as detailed in the legends to the appropriate figures.

[1] = system: methyltransferase activity in rod outer segments; conditions: cited from earlier work; for Ki: previous study, rod outer segments
[2] = varied AdoMet, fixed BFC 4 μM, read-out: Ki with respect to AdoMet
[3] = varied BFC, fixed AdoMet 5 μM, read-out: Ki with respect to BFC

| SMILES | type of inhibition with respect to AdoMet (recombinant human Icmt; varied AdoMet, fixed BFC 4 μM) | type of inhibition with respect to BFC (recombinant human Icmt; varied BFC, fixed AdoMet 5 μM) | Ki (recombinant human Icmt; [3]) | also measured |
| --- | --- | --- | --- | --- |
| CC(=O)N[C@@H](CSCC=C(C)CCC=C(C)CCC=C(C)C)C(=O)O [AFC, N-acetyl-L-farnesylcysteine] | – | – | – | apparent Km relative to Km of BFC (recombinant human Icmt; AFC Km (ref 20, 31) versus BFC Km 2.1 μM): 10 fold; Km ([1]; read-out: apparent Km as substrate): 20 µM |
| CNC(=O)[C@H](CSCC=C(C)CCC=C(C)CCC=C(C)C)NC(C)=O [AFCMA, N-acetyl-S-farnesyl-L-cysteine methyl amide] | – | – | – | product inhibition results compared with AFCME (recombinant human Icmt; second prenylcysteine-type product analog, data not shown): essentially identical results |
| COC(=O)[C@H](CSCC=C(C)CCC=C(C)CCC=C(C)C)NC(C)=O [AFCME, N-acetyl-S-farnesyl-L-cysteine methylester] | Mixed-type | Noncompetitive | 1900 nM and 1910 nM | Ki (recombinant human Icmt; [2]): 2400 nM and 2430 nM; Ki ([1]; compared with the value with respect to BFC, read-out: inhibition constant with respect to prenylcysteine substrate): 41 µM; Ki ([1]; read-out: inhibition constant with respect to AdoMet): 73 µM |
| C[S+](CC[C@H](N)C(=O)[O-])C[C@H]1O[C@@H](n2cnc3c(N)ncnc32)[C@H](O)[C@@H]1O (stereo partly drawn) [AdoMet, S-adenosyl-L-methionine] | – | – | – | Km (recombinant human Icmt): 7.8 µM |
| CC(C)=CCC/C(C)=C/CC/C(C)=C/CSC[C@H](NC(=O)CCCCC1SCC2NC(=O)NC21)C(=O)O (stereo partly drawn) [BFC, biotin-S-farnesyl-L-cysteine] | – | – | – | Km (recombinant human Icmt): 2.1 µM |

More lines, main results first:

| type of inhibition with respect to AdoMet (recombinant human Icmt; varied AdoMet, fixed BFC 4 μM) | type of inhibition with respect to BFC (recombinant human Icmt; varied BFC, fixed AdoMet 5 μM) | Ki (recombinant human Icmt; [3]) | SMILES | also measured |
| --- | --- | --- | --- | --- |
| Competitive | Competitive | 3600 nM and 3590 nM | Nc1ncnc2c1ncn2[C@@H]1O[C@H](CSCC[C@H](N)C(=O)O)[C@@H](O)[C@H]1O [AdoHcy, S-adenosyl-L-homocysteine] | Ki (recombinant human Icmt; [2]): 3500 nM and 3540 nM |
| Uncompetitive | Competitive | 1200 nM and 1170 nM | CC(C)=CCC/C(C)=C/CC/C(C)=C/CSCC(=O)O [FTA, S-farnesylthioacetic acid] | – |

Reference: paper PMC545952, “Analysis of the kinetic mechanism of recombinant human isoprenylcysteine carboxylmethyltransferase (Icmt)” (BMC Biochemistry, 2004)
